Laboratory results published in patent US11590155B2, “Substituted nucleosides, nucleotides and analogs thereof” (priority 2014, dated 2023).

Test system: Ebola
Assay: microbe, parasite or virus in culture
Format: cell-based
Conditions: Zaire ebolavirus, HeLa, read-out: EC50 against Ebola

Structure (SMILES) | EC50 [nM]
[N-]=[N+]=NC[C@]1(CO)O[C@@H](n2ccc(N)nc2=O)[C@H](F)[C@@H]1O [Compound 106] | < 2000
[N-]=[N+]=N[C@]1(CO)O[C@@H](n2ccc(N)nc2=O)[C@H](F)[C@@H]1O [compound 332] | < 2000
Nc1ccn([C@@H]2O[C@@](CO)(CCl)[C@@H](O)[C@H]2F)c(=O)n1 [compound 315] | < 25000
